Laboratory results as given in US20220330547A1, “INSECT REPELLENT” (Rilis Co., Ltd., priority 2019, published 2022).
Where “and” joins values, the source holds several entries; their conditions need not be identical. Equal entries are not always repeated. Where two headings read alike, the source gives them in different places.

Key:
[1] = oxidative modification of sample on filter paper, 40° C. for a week, measured by chromatography; assay type: physicochemical; details: for Variation (Oxidation) (%): decrease of area after 1 week at 40° C.; for Day of experiment (area): filter paper 1 g/m^2, measured on the day; for After 1 week (area): filter paper 1 g/m^2, sealed flask, 40° C., 150 rpm, a week
ticks [2] = assay: tick repellency test (petri dish) with filter paper heated at 150° C.; assay type: in vivo; details: 24 hours
Description: Subsequently, a relationship between the tick repellent effect resulting from a difference in oxidative modification rate and time was examined. In the test, mixed farnesyl acetone isomers, trans-farnesyl acetone, 2,4-DHAP and xanthoxyline were each dissolved to 1 g/m^2 in acetone, and each filter paper added thereto was heated at 150° C. only for 3 minutes, 5 minutes or 26 minutes. The filter paper not heated (hereinafter referred to as 150° C., 0 min) was also prepared.
Each filter paper was placed on the center of a petri dish with a diameter of 4 cm, and 0.05 g of an attractant sample was placed on the center of filter paper. The petri dish was placed on the center of another petri dish with a diameter of 9 cm, and about 10000 ticks were provided together with a medium to this another petri dish, which was left to stand for 24 hours. After that, ticks in the 4 cm petri dish were counted.
For the repellency rate, the proportion of the number of ticks which had not been attracted was calculated by the following formula using the number of ticks entering the petri dish on which only the attractant sample was placed, x (control), and contrarily the number of ticks entering the petri dish on which mixed farnesyl acetone isomers, trans-farnesyl acetone, 2,4-DHAP or xanthoxyline was placed, n.
Repellency rate={(x−n)/x} x 100 (%)
* a small number of entering ticks =high repellency rate
It should be noted that the heating time at 150° C. is not described in detail herein, but was converted by the following Arrhenius equation described in “Sumie Yoshioka, Stability of drugs and dosage forms, p. 142, 1995, Nankodo Co., Ltd.” as in Drug testing on Stability studies.
Arrhenius equation: k =A exp (-E/RT)
* Activation energy of stability studies E=22.1 kcal/mol.

ticks [3] = details: 1 g/m^2, after 24 hours; for Mortality rate after correction (%): corrected by mortality rate without treatment
Description: Incidentally, a tick killing experiment was performed by a filter paper contact method to examine whether or not the insecticidal effect is contained in the repellent effect of 2,4-DHAP and xanthoxyline. In the experiment, ticks attracted to the untreated site in the repellent test by the petri-dish method were obtained on a filter paper by the sodium chloride floatation method, and living ticks were gently taken with a fine brush (one stroke). A 5 cm x 10 cm filter paper permeated with 1 g/m^2 of a sample was dried in air and shaped into a bag form. The taken ticks were put therein, and the opening thereof was closed with clips. After 24 hours, living ticks and dead ticks were measured.
In the tick killing test, 2,4-DHAP, xanthoxyline and DEET were compared. DEET is a compound used as a repellent for e.g. insects (anti-insect agent), and is also called N,N-diethyl-3-methylbenzamide or N,N-diethyl-m-toluamide.
In Table 3, the mortality rates (%) of 2,4-DHAP, xanthoxyline and DEET are values corrected by the mortality rate without treatment based on the mortality rate without treatment.

[4] = 25° C.; cited from earlier work
ticks [5] = assay: repellent effect of farnesyl acetone in an environment of 150° C. (background statement); assay type: in vivo
Description: For example, if there is a heat treatment step in the step of the anti-tick treatment, because oxidation reactivity due to heat is high, the repellent effect is already reduced to 30% or less after about 3 minutes in an environment of 150° C., and the repellent effect is reduced to 0% by at most 60 minutes. That is to say, it is troublesome to subject living materials of interest to the anti-tick treatment.

ticks [6] = details: maintained over 14 days; cited from earlier work
[7] = 1 g/m^2, 150° C. 0 min (not heated)
[8] = 1 g/m^2, 150° C. 3 min (corresponding to 25° C., about 4 months)
[9] = 1 g/m^2, 150° C. 5 min (corresponding to 25° C., about 7 months)
[10] = 1 g/m^2, 150° C. 26 min (corresponding to 25° C., about 3 years)

SMILES | Variation (Oxidation) (%) [1] | Day of experiment (area) [1] | After 1 week (area) [1] | Repellency rate (ticks [2]; [7]) | Repellency rate (ticks [2]; [8]) | Repellency rate (ticks [2]; [9]) | Repellency rate (ticks [2]; [10]) | Dead ticks (ticks [3]; Average) | Living ticks (ticks [3]; Average) | Mortality rate (%) (ticks [3]; Average) | Living ticks (ticks [3]; single run) | Mortality rate (%) (ticks [3]; single run) | Mortality rate after correction (%) (ticks [3]; single run) | transpiration properties [4] | other results
CC(=O)CCC=C(C)CCC=C(C)CCC=C(C)C (mixture of isomers) [Mixed farnesyl acetone isomers, farnesyl acetone] | 67.10% | 3145831 area | 1038335 area | 90.60% | 94.90% | 24.60% | 17.60% |  |  |  |  |  |  |  | Variation (Oxidation) (%) ([1]; listed as mixed farnesyl acetone isomers): 67.10%; Repellency rate (ticks [2]; 1 g/m^2, 150° C. 5 min (corresponding to 25° C., about 7 months), listed as mixed farnesyl acetone isomers): 30%; Repellency rate (ticks [2]; 1 g/m^2, 150° C. 26 min (corresponding to 25° C., about 3 years), listed as mixed farnesyl acetone isomers): 17.6%
CC(=O)c1ccc(O)cc1O [2,4-DHAP, 2′,4′-dihydroxyacetophenone] | 7.4% and 7.46% | 12027833 area | 11130386 area | 39.80% | 37.40% |  |  | 4 | 106 | 3.4% | 81 and 131 | 2.4% and 4.4% | 0.0% | 6×10^-5 mmHg | 
CCN(CC)C(=O)c1cccc(C)c1 [DEET, N,N-diethyl-3-methylbenzamide, reference compound] |  |  |  |  |  |  |  | 62 | 2 | 96.2% |  | 100.0% and 92.3% | 100.0% and 91.5% |  | Mortality rate after correction (%) (ticks [3]; Average): 95.8%
COc1cc(O)c(C(C)=O)c(OC)c1 [Xanthoxyline] | 2.42% | 5756751 area | 5617299 area | 92.40% | 97.40% | 95.80% | 93.00% | 24 | 75 |  | 90 and 59 |  |  | 1.5×10^-5 mmHg | Variation (Oxidation) (%) ([1]; listed as xanthoxyline): 2.42%; Repellency rate (ticks [2]; 1 g/m^2, 150° C. 3 min (corresponding to 25° C., about 4 months), listed as xanthoxyline): ≥ 90%; Repellency rate (ticks [2]; 1 g/m^2, 150° C. 5 min (corresponding to 25° C., about 7 months), listed as xanthoxyline): ≥ 90%; Dead ticks (ticks [3]; single run): 26 and 22
CC(=O)CCC=C(C)CCC=C(C)CCC=C(C)C [farnesyl acetone] |  |  |  |  |  |  |  |  |  |  |  |  |  |  | repellent effect (ticks [5]; after about 3 minutes at 150° C.): ≤ 30%; repellent effect (ticks [5]; by at most 60 minutes at 150° C.): 0%; repellent effect (ticks [6]): ≥ 95%
CC(=O)CC/C=C(\C)CC/C=C(\C)CCC=C(C)C [trans-Farnesyl acetone] | 19.29% | 4022168 area | 3246218 area | 94.30% | 90.50% | 65.70% | 0.00% |  |  |  |  |  |  |  | Variation (Oxidation) (%) ([1]; listed as trans-farnesyl acetone): 19.29%; Repellency rate (ticks [2]; 1 g/m^2, 150° C. 5 min (corresponding to 25° C., about 7 months), listed as trans-farnesyl acetone): below 65%
